Like-named read-outs stand apart in the source and are kept apart here.
Key:
[1] = target: Acremonium chrysogenum NBRC30055-derived saccharide oxidase (Hapsidospora chrysogena, UniProt A0A086T4F9); assay: Investigation of substrate specificity; type: biochemical
Experimental: Using each saccharide indicated in Table 4 shown below as a substrate and in the presence of oxygen, the protein purified in Example 1 described above was reacted for 5 minutes at 37° C. at pH 7.0, and the measurement was conducted in accordance with the aforementioned saccharide oxidase activity measuring method. In addition, regarding the activity toward the glucose as 100%, the relative value of the activity toward each saccharide was calculated, thereby evaluating the substrate specificity.

[2] = tested on: OC[C@H]1OC(O)[C@H](O)[C@@H](O)[C@@H]1O; assay: purified protein, by the assay type; details: other: saccharide as substrate of the purified protein; pH 7.0; 37.0 °C
Text: Using the protein purified in the aforementioned Example together with glucose and maltose as substrates, the aforementioned saccharide oxidase activity method was used to measure the activity thereby obtaining Hanes-Woolf plots, from which each Michaelis constant (Km) was obtained.

[3] = Production of lactobionic acid (HPLC verification); type: biochemical; details: 3 U protein, 0.75 g lactose monohydrate, 23 hours, 40° C., 160 rpm
Experimental: 3 ml of a solution containing 0.75 g of lactose monohydrate, 0.225 g of potassium carbonate, and 3 U of the protein purified in the aforementioned Example 1 was added and shaken for 23 hours under the condition involving 40° C. and 160 rpm.
After the reaction, the sample was boiled for 10 minutes and then centrifuged at 15,000 rpm for 10 minutes. The resultant supernatant was filtered through a 0.45 μm filter and subjected to an HPLC analysis.

[4] = Investigation of thermostability; type: physicochemical
Experimental: (§1) Since a quinoneimine color having absorption band at a wavelength of 550 nm was formed when the enzymatic reaction advanced, the saccharide oxidase activity was measured by measuring the increase in the absorbance at a wavelength of 550 nm per minute.
The protein solution purified in the aforementioned Example 1 was subjected to a heat treatment for 15 minutes at a temperature of 20° C., 25° C., 30° C., 35° C., 37° C., 40° C., 45° C., 50° C., 55° C., 60° C., 65° C., 70° C., 75° C., and 80° C., and thereafter the residual activity was measured by the aforementioned saccharide oxidase activity method. Regarding the activity with no heat treatment as 100%, each value of the residual activity was calculated. The results are indicated in the drawing-substituting graph of FIG. 5.

[5] = Thermal inactivation after desugaring of egg white; type: physicochemical
Experimental: 100 μL of the desugared egg white was subjected to a heat treatment at a temperature of 54, 56, and 58° C. for 1, 3, 5, and 8 minutes, respectively, and then cooled on ice, and the residual activity of each enzyme was measured.

[6] = Investigation of pH stability; type: physicochemical; details: pH5.0 to pH10.5, 15 minutes at 37° C.; treatment at pH7.0 = 100%; maltose substrate
Experimental: as §1
The protein solution purified in the aforementioned Example 1 and the buffer solution of each pH used in the aforementioned Example 3 were mixed in equal volumes and treated for 15 minutes at 37° C., and thereafter the activity was measured by the aforementioned saccharide oxidase activity measuring method. As a substrate, maltose was used. In addition, regarding the activity when using monopotassium phosphate-sodium hydroxide buffer solution (pH7.0) for treatment as 100%, each relative value of the activity was calculated. The results are indicated in the drawing-substituting graph of FIG. 3.

[7] = saccharide as substrate, activity toward glucose = 100%, 37° C., pH 7.0, 5 minutes, in the presence of oxygen
[8] = relative activity 50% or higher versus glucose is judged satisfactory

With Maltohexaose the “Relative activity (%)” value [1, 7] was 28%.

In the case of `OC[C@H]1O[C@@H](O[C@H]2[C@H](O)[C@@H](O)[C@H](O)O[C@@H]2CO)[C@H](O)[C@@H](O)[C@@H]1O` [D(+)-Cellobiose], the “effect of the saccharide oxidase on the substrate (in words)” value (“effect of the saccharide oxidase” for short) [1, 8] is reported as “satisfactory effect”.

With `O=C(CO)[C@@H](O)[C@H](O)[C@H](O)CO` [D(−)-Fructose] the “Relative activity (%)” value ([1]; pH 7) was 0% and the “effect of the saccharide oxidase” value [1, 8] was “No effect”.

In the case of Maltoheptaose, the “Relative activity (%)” value [1, 7] is reported as 24%.

In the case of Maltopentaose, the “Relative activity (%)” value [1, 7] is reported as 39%.

For `O=C[C@H](O)[C@@H](O)[C@@H](O)[C@H](O)CO` [Galactose], the “effect of the saccharide oxidase” value [1, 8] was “satisfactory effect”, the “Relative activity (%)” value [1, 7] was 79% and the “Relative activity (%)” value ([1]; saccharide as substrate, activity toward glucose = 100%, 37° C., pH 7.0, 5 minutes, in the presence of oxygen, listed as galactose) was “about 79%”.

“Acremonium chrysogenum NBRC30055-derived saccharide oxidase (Hapsidospora chrysogenum ATCC 11550)” showed a Km [2] of 8 mM.

For Lactose monohydrate, the “effect of the saccharide oxidase” value [1] was “satisfactory effect”.

With Maltotriose the “effect of the saccharide oxidase” value [1, 8] was “satisfactory effect”, the “Relative activity (%)” value [1, 7] was 92% and the “Relative activity (%)” value ([1]; saccharide as substrate, activity toward glucose = 100%, 37° C., pH 7.0, 5 minutes, in the presence of oxygen, listed as maltotriose) was “about 92%”.

In the case of `OC[C@H]1O[C@H](O[C@H]2[C@H](O)[C@@H](O)[C@@H](O[C@H]3[C@H](O)[C@@H](O)[C@@H](O[C@H]4[C@H](O)[C@@H](O)C(O)O[C@@H]4CO)O[C@@H]3CO)O[C@@H]2CO)[C@H](O)[C@@H](O)[C@@H]1O` (some centres unmarked) [Maltotetraose], the “effect of the saccharide oxidase” value [1, 8] is reported as “satisfactory effect”, the “Relative activity (%)” value [1, 7] is reported as 60% and the “Relative activity (%)” value ([1]; saccharide as substrate, activity toward glucose = 100%, 37° C., pH 7.0, 5 minutes, in the presence of oxygen, listed as maltotetraose) is reported as “about 60%”.

With `OC[C@H]1O[C@@](CO)(O[C@H]2O[C@H](CO)[C@@H](O)[C@H](O)[C@H]2O)[C@@H](O)[C@@H]1O` [Sucrose] the “Relative activity (%)” value ([1]; pH 7) was 0% and the “effect of the saccharide oxidase” value [1, 8] was “No effect”.

With Maltose monohydrate the “effect of the saccharide oxidase” value [1] was “satisfactory effect”.

B1: Saccharide oxidase: protein having saccharide oxidase activity purified from Acremonium chrysogenum NBRC30055, about 63 kDa, amino acid sequence SEQ. ID. NO:10 (protein, listed as Acremonium chrysogenum)
chain: MRSLAPLLSIAALARASPVDTSLLTRQETLNTCLEAAELSYVDVNSEDWEDAIVPHNLRVPVVPRAVVYATATEQIQAAVKCAVESEIRVSAKSGGHSYASMGLGGEDGSLVIQLDHWHDVTLRDDNTAVVSAGTRLGVVALELYAQGKRGISHGTCPSVGVGGHVVHGGYGFSSHTHGLALDAVVGANVVLADGSLVHASETENTDLFWALRGGGSSFGIVAEFEFETFDVSHNFSYFSIDSDISQETAEEATASLLAFQDALEEGLMDRKLNMRLSLGRPKVTLEAVYHGAKEDGRKALELFDDILGLNWSSNRTRANEADWLTMLESWTYGDPLNITYPYEGHDNAYTSSLVTRHIPEDAMASFMTYWKGVGQDRETPNWWLQMDVHGDANSRISEVDADSTAYSHRDKLWLFQFSSPLNPLRPDPEAAFALVNGYMDSIKDHLGDGEWGRYANYIDSELSREDAQTQYWSDHLDKLQAIKAELDPTQVFYNPQSIDPAAVE
With B1 the “production of lactobionic acid from lactose” value [3] was “production of the lactobionic acid was verified”, the “residual activity after heat treatment” value ([4]; 15 minutes at 45° C., pH7.0, no heat treatment = 100%) was no less than 80% and the “temperature up to which stability was observed” value ([4]; heat treatment for 15 minutes) was “up to 45 °C”. For the same molecule, the “residual enzyme activity in desugared egg white after heat treatment” value ([5]; 54 and 56° C., 1, 3, 5 and 8 minutes) was “no substantial reduction in the activity”, the “residual enzyme activity in desugared egg white after heat treatment” value ([5]; 58° C. for 5 minutes or longer, compared with the glucose oxidase) was “significant reduction in the activity” and the “residual activity after pH treatment” value [6] was no less than 85%.

Reference: patent US10167453B2, “Saccharide oxidase, and production method for same and use of same” (AMANO ENZYME INC., priority 2012, dated 2019)
